We go through 3 compounds from US12168802B2, “Methods of diagnosing and treating CD55 deficiency, hyperactivation of complement, angiopathic thrombosis and protein losing enteropathy (CHAPLE), a newly identified orphan disease” (The United States of America, as represented by the …, priority 2016, dated 2024).

In one series the test system is human CD4+ T cells. The experiment in a line: Surface expression of C3aR and gut homing markers on CD4+ T cells grown with ATRA. The class given is cell-based. The following applies: w/wo 10 nM ATRA. The procedure:
FIGS. 9A, 9B, 9C, 9D, 9E, 9F, 9G, 9H, 9I, 9J, 9K, 9L, 9M, 9N, 90, and 9P. Changes in inflammatory cytokine production by CD55 deficient cells promote pro-thrombotic changes in endothelial cells. Cytokine secretion in control and patient T cells following restimulation with anti-CD3 for 48 hours. Cells were either left untreated or treated with a combination of C3aR and C5aR1 inhibitors, both at 10 μM final concentration. Each patient point represents the average of at least three independent experiments. Results are for TNFα, IL10, or IFNγ (A, B, and C respectively). […] Quantification of the change in TM and TF expression on HUVECs in response to 24 hour culture with increasing doses of TNFα (H). […] Quantification of CD46, CD59, and CD55 expression on HUVECs in response to 24 hour culture with increasing doses of TNFα (J, K, and L, respectively). Quantification of the change in TM and TF expression on HUVECs in response to 48 hour culture with increasing doses of ATRA (M). Quantification of CD46, CD59, and CD55 expression on HUVECs in response to 48 hour culture with increasing doses of ATRA (N, O, and P, respectively). […]
Flow Cytometry. […] Cells were then washed 3× and resuspended in FACS buffer with 1% PFA and analyzed by flow cytometry. Flow files were analyzed on FlowJo version 9.9 or above (FlowJo, LLC, Ashland, OR, USA).

A further series has as its system HUVECs. The experiment in a line: Surface marker expression on HUVECs after TNFα or ATRA treatment (flow cytometry). Format: cell-based, human. As to the method: FIGS. 9A, 9B, 9C, 9D, 9E, 9F, 9G, 9H, 9I, 9J, 9K, 9L, 9M, 9N, 90, and 9P. Changes in inflammatory cytokine production by CD55 deficient cells promote pro-thrombotic changes in endothelial cells. Cytokine secretion in control and patient T cells following restimulation with anti-CD3 for 48 hours. Cells were either left untreated or treated with a combination of C3aR and C5aR1 inhibitors, both at 10 μM final concentration. Each patient point represents the average of at least three independent experiments. Results are for TNFα, IL10, or IFNγ (A, B, and C respectively). Anaphylatoxin receptor surface expression on proliferating CD4^+ T cells grown in complete RPMI supplemented with 100 u/mL IL2, isotype: filled grey line, sample: solid black line (D). C3aR expression on proliferating CD4^+ T cells grown in serum free X-vivo15 media supplemented with 100 u/mL IL-2 w/wo 10 nM ATRA, grey and black line respectively, isotype: filled grey line (E). IL-10 production in control and patient T cells stimulated with anti-CD3 and stimulatory antibodies directed against the indicated costimulatory molecules (F). Flow plots of thrombomodulin (TM) and Tissue Factor (TF) expression on HUVECs cultured for 24 hours w/wo 10 ng/mL TNFα (G). Quantification of the change in TM and TF expression on HUVECs in response to 24 hour culture with increasing doses of TNFα (H). Flow plots of CD46 and CD59 expression on HUVECs cultured for 24 hours w/wo 10 ng/mL TNFα (I). Quantification of CD46, CD59, and CD55 expression on HUVECs in response to 24 hour culture with increasing doses of TNFα (J, K, and L, respectively). Quantification of the change in TM and TF expression on HUVECs in response to 48 hour culture with increasing doses of ATRA (M). Quantification of CD46, CD59, and CD55 expression on HUVECs in response to 48 hour culture with increasing doses of ATRA (N, O, and P, respectively). (not significant (n.s.), * p<0.05, **p<0.01, ***p<0.001).
Flow Cytometry. Adherent cells were treated with 0.05% trypsin EDTA to lift them from the surface followed by addition of 5% FBS to inactivate the trypsin. Suspension cells were collected from culture following mixture of the culture by repeat pipetting. Cells were washed and resuspended in FACS buffer (1% FBS, 0.05% sodium azide, and 5 mM EDTA in PBS) at 2×10^6 cells/mL. Staining or isotype antibodies were added at 1:200 final dilutions and incubated with cells at 4° C. for 30 minutes to 1 hour. Cells were then washed 3× and resuspended in FACS buffer with 1% PFA and analyzed by flow cytometry. Flow files were analyzed on FlowJo version 9.9 or above (FlowJo, LLC, Ashland, OR, USA).
HUVEC Experiments. Huvecs grown to 80% confluency, and before passage 8, were trypsonized and replated in 24 well tissue culture plates at 200,000 cells/well in Huvec media. Twenty-four hours later the indicated concentrations of TNFα, IL10, or all trans retinoic acid (ATRA) were added. Twenty-four hours later in the cast of TNFα or IL10 treatment or 48 hours later in the case of ATRA, cells were trypsonized and stained for the indicated surface markers following the described flow cytometry staining protocol. Cells were then immediately analyzed.
A general note: A flow cytometer gives signals particle by particle.

In a further series the test system is human T cells. Nature of the series: C3d complement deposition on T cells incubated with normal human serum (flow cytometry). To be noted: 5% nHS, 100 μM Compstatin. The class given is cell-based. As to the method:
(§1) FIGS. 11A, 11B, and 11C. (A) C3d deposition on patient and control T cells were incubated in the presence or absence of 5% nHS with or without the addition of 100 μM Compstatin to block complement activation. (B) Ratio of C3a to C4a in culture supernatants after 24 hours of incubation with 5% nHS w/wo 100 μM compstatin. (C) Ratio of C5a to C4a in culture supernatants after 24 hours of incubation with 5% nHS or without 100 μM compstatin. ***=p<0.001.
Complement Deposition. T cells (Patient CD4^+ T cell blasts or Jurkat T cells) were collected and washed 3× in basal RPMI. Cells were then resuspended in basal media and rested for 2-3 hours at 37° C. to allow any deposited complement components to be cleared from the cell surface. Rested cells were then collected and resupended in basal RPMI or basal RPMI that had been adjusted to pH 6.5 (acidified media) to a final concentration of 1×10^6 cells/mL. Non-heat shocked pooled normal human serum was then added to cell suspension for the indicated amount of time. Human serum that had been heat shocked at 56° C. for 30 minutes was used as a negative control for complement activation. […] Cells were washed 3× and resuspended in FACS buffer (PBS, 1% FBS) and analyzed for C3d deposition by flow cytometry. […] Cells were then treated with trypsin/EDTA to release cells into suspension, washed, and then analyzed for C3d deposition as above. […]

In a further series the test system is patient T cells. Nature of the series: Anaphylatoxin ratios (C3a/C4a, C5a/C4a) in T cell culture supernatants. To be noted: 24 hours incubation with 5% nHS, 100 μM Compstatin. Format: cell-based, human. As to the method: as §1
Compstatin Inhibits C3d Deposition on Human Cells. FIG. 11A illustrates that Compstatin inhibits C3d deposition on human T cells. […] In FIG. 11C, the ratio of C5a to C4a in culture supernatants of patient T cells after 24 hours of incubation with 5% nHS and 100 μM Compstatin is decreased, as compared to patient T cells not treated with Compstatin. ***=p<0.001.

The mark [1] stands for this setting: 48 hour culture with increasing doses of ATRA.

`CC1=C(/C=C/C(C)=C/C=C/C(C)=C/C(=O)O)C(C)(C)CCC1` [ATRA, all trans retinoic acid]: in the series with human CD4+ T cells (serum free X-vivo15 media), the “surface expression of C3aR on T cells” value is reported as “depended on the presence”. The “chemokine receptor CCR9 and integrin α4β7 (gut homing) on T cells” value in the series on human CD4+ T cells (serum free conditions) is listed as “expressed”. In the series on HUVECs (setting [1]), the CD46 expression entry was “no change”, the CD55 expression result is recorded as “increase”, the CD59 expression result was “no change” and the thrombomodulin expression result is “dose-dependent decrease”.

For `CC[C@H](C)[C@H](N)C(=O)N[C@H]1CSSC[C@@H](C(=O)N[C@H](C(N)=O)[C@@H](C)O)NC(=O)[C@H](CCCN=C(N)N)NC(=O)[C@H](Cc2cnc[nH]2)NC(=O)[C@H](Cc2cnc[nH]2)NC(=O)CNC(=O)[C@H](Cc2c[nH]c3ccccc23)NC(=O)[C@H](CC(=O)O)NC(=O)[C@H](CCC(N)=O)NC(=O)[C@H](C(C)C)NC(=O)[C@H](C(C)C)NC1=O` [Compstatin], in the series with human T cells, the “C3d deposition on patient T cells” value is “substantially inhibited”. In addition, in the series with patient T cells, the “ratio of C3a to C4a in culture supernatants” value is reported as “considerably decreased” and the “ratio of C5a to C4a in culture supernatants” value is listed as “decreased”.

For the compound TNFα, in the series on HUVECs (24 hour culture with TNFα), the “CD46 expression on endothelial cells” value is reported as “decreased”; the “CD55 expression on endothelial cells” value is given as “modestly increasing”; the “CD59 expression on endothelial cells” value is on record as “decreased”; the “thrombomodulin (TM) and tissue factor (TF) expression on endothelial cells” value was “induces procoagulatory”.
